Assay results: ChEMBL document CHEMBL4825749, “Pyrimidine-2,4-dione targets STAT3 signaling pathway to induce cytotoxicity in hepatocellular carcinoma cells” (Bioorg Med Chem Lett, 2021)
Values belong to the compound of their own block, whether it stands above or below them. Calls of active or inactive are those of the source. No cut-off for these calls is given here.

What was measured:
HepG2 [1] = experiment: Cytotoxicity against human HepG2 cells assessed as reduction in cell viability measured upto 72 hrs by MTT assay; type: functional, cell-based; settings: HepG2, 72 h
[2] = Cytotoxicity against human HCCLM3 cells assessed as reduction in cell viability measured upto 72 hrs by MTT assay; type: functional, cell-based; settings: HCCLM3, 72 h
HepG2 [3] = experiment: Cytotoxicity against human HepG2 cells assessed as cell viability up to 50 uM measured upto 72 hrs by MTT assay; type: functional, cell-based; settings: dose microM <=50, time hrs <=72
HCCLM3 [4] = experiment: Cytotoxicity against human HCCLM3 cells assessed as cell viability up to 50 uM measured upto 72 hrs by MTT assay; type: functional, cell-based; settings: dose microM <=50, time hrs <=72
L02 = experiment: Cytotoxicity against human L02 cells assessed as cell viability measured by MTT assay; type: cell-based
[5] = target: Signal transducer and activator of transcription 3 (Homo sapiens) (UniProt P40763); experiment: Inhibition of STAT3 activation in human HepG2 cells assessed as decrease in STAT3 phosphorylation at Y705 residue at 25 uM by Western blot analysis; type: cell-based; settings: time hrs <=12, TDE = time-dependent effect
[6] = target: Signal transducer and activator of transcription 3 (Homo sapiens) (UniProt P40763); experiment: Inhibition of STAT3 activation in human HCCLM3 cells assessed as decrease in STAT3 phosphorylation at Y705 residue at 25 uM by Western blot analysis; type: cell-based; settings: time hrs <=12, TDE = time-dependent effect
[7] = target: T1, Signal transducer and activator of transcription 5A (Homo sapiens) (UniProt P42229); experiment: […] in human HepG2 cells assessed as decrease in STAT3 phosphorylation at Y694 residue at 25 uM by Western blot analysis; type: cell-based
T1 sequence (whole entry): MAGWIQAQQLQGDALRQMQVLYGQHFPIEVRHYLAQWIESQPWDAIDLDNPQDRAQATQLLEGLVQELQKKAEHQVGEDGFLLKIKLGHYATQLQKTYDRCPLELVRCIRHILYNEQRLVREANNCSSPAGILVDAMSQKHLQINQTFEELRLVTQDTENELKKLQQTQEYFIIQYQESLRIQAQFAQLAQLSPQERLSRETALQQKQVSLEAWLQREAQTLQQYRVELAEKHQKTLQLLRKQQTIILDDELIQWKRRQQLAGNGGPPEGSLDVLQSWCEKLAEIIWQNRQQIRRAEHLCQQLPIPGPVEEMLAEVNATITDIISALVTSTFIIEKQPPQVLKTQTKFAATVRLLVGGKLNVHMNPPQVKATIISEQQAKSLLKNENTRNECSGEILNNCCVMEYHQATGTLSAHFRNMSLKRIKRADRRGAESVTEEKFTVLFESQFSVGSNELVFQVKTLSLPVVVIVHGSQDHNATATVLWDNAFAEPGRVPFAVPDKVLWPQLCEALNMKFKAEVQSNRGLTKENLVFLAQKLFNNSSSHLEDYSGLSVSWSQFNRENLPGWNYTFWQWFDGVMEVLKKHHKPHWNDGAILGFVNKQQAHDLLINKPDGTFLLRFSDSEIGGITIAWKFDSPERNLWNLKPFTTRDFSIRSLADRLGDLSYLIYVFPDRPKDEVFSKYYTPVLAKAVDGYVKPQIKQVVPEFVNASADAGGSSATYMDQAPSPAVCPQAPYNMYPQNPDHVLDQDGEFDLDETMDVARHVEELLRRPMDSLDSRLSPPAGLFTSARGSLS

[8] = target: T1, Signal transducer and activator of transcription 5A (Homo sapiens); experiment: […] in human HCCLM3 cells assessed as decrease in STAT3 phosphorylation at Y694 residue at 25 uM by Western blot analysis; type: cell-based
[9] = target: Signal transducer and activator of transcription 3 (Homo sapiens) (UniProt P40763); experiment: Inhibition of STAT3 in human HepG2 cell lysate assessed as suppression of STAT3-DNA interaction at 25 uM by ELISA; type: subcellular; settings: time hrs <=12, TDE = time-dependent effect
[10] = target: Signal transducer and activator of transcription 3 (Homo sapiens) (UniProt P40763); experiment: Inhibition of STAT3 in human HCCLM3 cell lysate assessed as suppression of STAT3-DNA interaction at 25 uM by ELISA; type: subcellular; settings: time hrs <=12, TDE = time-dependent effect
HepG2 [11] = experiment: Induction of cell cycle arrest in human HepG2 cells assessed as accumulation sub-G1 phase at 50 uM incubated for 24 hrs by propidium iodide staining based flow cytometry analysis relative to control; type: functional
HepG2 [12] = experiment: Induction of cell cycle arrest in human HepG2 cells assessed as accumulation sub-G1 phase at 50 uM incubated for 48 hrs by propidium iodide staining based flow cytometry analysis relative to control; type: functional
HCCLM3 [13] = experiment: Induction of apoptosis in human HCCLM3 cells assessed as decrease in Bcl2 expression at 25 uM by measured up to 48 hrs Western blot analysis; type: functional, cell-based; settings: time hrs <=48
HCCLM3 [14] = experiment: Induction of apoptosis in human HCCLM3 cells assessed as decrease in Survivin expression at 25 uM by measured up to 48 hrs Western blot analysis; type: functional, cell-based; settings: time hrs <=48
HCCLM3 [15] = experiment: Induction of apoptosis in human HCCLM3 cells assessed as decrease in Cyclin D1 expression at 25 uM by measured up to 48 hrs Western blot analysis; type: functional, cell-based; settings: time hrs <=48
HCCLM3 [16] = experiment: Induction of apoptosis in human HCCLM3 cells assessed as increase in Cleaved caspase-3 expression at 25 uM by measured up to 48 hrs Western blot analysis; type: functional, cell-based; settings: time hrs <=48
HepG2 [17] = experiment: Antimigratory activity against human HepG2 cells assessed as inhibition of cell migration at 50 uM; type: functional, cell-based
HCCLM3 [18] = experiment: Antimigratory activity against human HCCLM3 cells assessed as inhibition of cell migration at 50 uM; type: functional, cell-based
HepG2 [19] = experiment: Induction of cell cycle arrest in human HepG2 cells assessed as accumulation sub-G1 phase at 50 uM incubated for 72 hrs by propidium iodide staining based flow cytometry analysis relative to control; type: functional
HepG2 [20] = experiment: Antimigratory activity against human HepG2 cells assessed as inhibition of cell migration at 50 uM in presence of CXCL12; type: functional, cell-based
HCCLM3 [21] = experiment: Antimigratory activity against human HCCLM3 cells assessed as inhibition of cell migration at 50 uM in presence of CXCL12; type: functional, cell-based
HepG2 [22] = experiment: Antiinvasive activity in human HepG2 cells at 50 nM incubated for 8 hrs in presence of CXCL12 by crystal violet staining based assay; type: functional, cell-based
HCCLM3 [23] = experiment: Antiinvasive activity in human HCCLM3 cells at 50 nM incubated for 8 hrs in presence of CXCL12 by crystal violet staining based assay; type: functional, cell-based
[24] = Induction of cell cycle arrest in human HCCLM3 cells assessed as accumulation sub-G1 phase at 50 uM incubated for 24 hrs by propidium iodide staining based flow cytometry analysis relative to control; type: functional
[25] = Induction of cell cycle arrest in human HCCLM3 cells assessed as accumulation sub-G1 phase at 50 uM incubated for 48 hrs by propidium iodide staining based flow cytometry analysis relative to control; type: functional
[26] = Induction of cell cycle arrest in human HCCLM3 cells assessed as accumulation sub-G1 phase at 50 uM incubated for 72 hrs by propidium iodide staining based flow cytometry analysis relative to control; type: functional

Sequence of Signal transducer and activator of transcription 3 (Homo sapiens) (P40763 whole entry): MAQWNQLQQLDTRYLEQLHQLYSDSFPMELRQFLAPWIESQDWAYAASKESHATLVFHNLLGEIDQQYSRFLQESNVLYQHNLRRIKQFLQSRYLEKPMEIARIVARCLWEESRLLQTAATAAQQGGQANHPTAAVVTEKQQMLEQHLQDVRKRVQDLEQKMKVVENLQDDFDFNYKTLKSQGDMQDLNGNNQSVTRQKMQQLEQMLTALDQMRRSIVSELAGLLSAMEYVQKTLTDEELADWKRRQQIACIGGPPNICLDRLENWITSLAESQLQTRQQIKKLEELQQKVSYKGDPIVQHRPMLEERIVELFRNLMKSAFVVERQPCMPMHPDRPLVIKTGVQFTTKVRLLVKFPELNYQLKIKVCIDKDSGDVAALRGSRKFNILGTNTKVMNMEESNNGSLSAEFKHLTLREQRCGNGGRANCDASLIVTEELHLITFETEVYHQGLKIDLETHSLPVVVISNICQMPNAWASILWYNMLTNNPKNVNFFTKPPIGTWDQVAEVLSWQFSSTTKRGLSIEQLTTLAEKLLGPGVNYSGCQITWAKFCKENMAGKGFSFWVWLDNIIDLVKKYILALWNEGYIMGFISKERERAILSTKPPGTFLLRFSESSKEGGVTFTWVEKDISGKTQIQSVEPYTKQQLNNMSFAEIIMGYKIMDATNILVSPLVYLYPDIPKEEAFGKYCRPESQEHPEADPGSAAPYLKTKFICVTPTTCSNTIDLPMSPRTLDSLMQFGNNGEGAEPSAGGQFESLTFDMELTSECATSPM

- inhibition [5]: Tde
- inhibition [6]: Tde
- inhibition [7]: inactive
- inhibition [8]: inactive
- inhibition [9]: Tde
- inhibition [10]: Tde
SMILES: Cn1c(=O)cc(-c2cccc3ccccc23)[nH]c1=O
- IC50 (HepG2 [1]): 20.9 µM
- IC50 [2]: 42.6 µM
- Activity (HepG2 [3]): Dose-Dependent Effect
- Activity (HCCLM3 [4]): Dose-Dependent Effect
- Activity (L02): Toxic
- Activity (HepG2 [11]): 39.3%
- Activity (HepG2 [12]): 46.5%
- Activity (HCCLM3 [13]): Active
- Activity (HCCLM3 [14]): Active
- Activity (HCCLM3 [15]): Active
- Activity (HCCLM3 [16]): Active
- Activity (HepG2 [17]): Active
- Activity (HCCLM3 [18]): Active
- Activity (HepG2 [19]): 67.3%
- Activity (HepG2 [20]): Active
- Activity (HCCLM3 [21]): Active
- Activity (HepG2 [22]): Active
- Activity (HCCLM3 [23]): Active
- Activity [24]: 39.3%
- Activity [25]: 46.5%
- Activity [26]: 67.3%

SMILES: CC(C)Oc1cccc(-c2cc(=O)n(C)c(=O)[nH]2)c1
- IC50 (HepG2 [1]): 47.6 µM
- IC50 [2]: 41.5 µM

SMILES: C[C@H](NC(=O)/C(C#N)=C/c1cccc(Br)n1)c1ccccc1
- Activity (HepG2 [3]): Dose-Dependent Effect
- Activity (HCCLM3 [4]): Dose-Dependent Effect
